Test results published in patent US8981149B2, “Compounds modulating the hedgehog protein signaling pathway, marked forms thereof, and applications” (Centre National De La Recherche Scientifique, priority 2011, dated 2015).

Legend:
human Smo receptor = biological target: T1, human Smo receptor (Homo sapiens, UniProt Q99835); experiment: Competition with bodipy-cyclopamine (BC) binding in HEK-hSmo cells
T1 construct: expressed in transfected cells
Experimental: Cells of the HEK293 line stably transfected with the human Smo receptor are used. The experiment was conducted according to the protocol described in Roudaut et al., Mol. Pharmacol. 79: 453-460, 2011.
At the end of the incubation, the cells are fixed and stained with DAPI, a fluorescent molecule with high affinity for DNA which makes it possible to visualize the nuclei in blue in fluorescence microscopy.

[1] = biological target: T2, human Smoothened receptor (Homo sapiens, UniProt Q99835); experiment: Inhibition of binding of 3H-(7d) to membranes of HEK-hSmo cells; conditions: HEK-hSmo membranes
T2 construct: expressed in transfected cells
T2 sequence (Q99835 28-787): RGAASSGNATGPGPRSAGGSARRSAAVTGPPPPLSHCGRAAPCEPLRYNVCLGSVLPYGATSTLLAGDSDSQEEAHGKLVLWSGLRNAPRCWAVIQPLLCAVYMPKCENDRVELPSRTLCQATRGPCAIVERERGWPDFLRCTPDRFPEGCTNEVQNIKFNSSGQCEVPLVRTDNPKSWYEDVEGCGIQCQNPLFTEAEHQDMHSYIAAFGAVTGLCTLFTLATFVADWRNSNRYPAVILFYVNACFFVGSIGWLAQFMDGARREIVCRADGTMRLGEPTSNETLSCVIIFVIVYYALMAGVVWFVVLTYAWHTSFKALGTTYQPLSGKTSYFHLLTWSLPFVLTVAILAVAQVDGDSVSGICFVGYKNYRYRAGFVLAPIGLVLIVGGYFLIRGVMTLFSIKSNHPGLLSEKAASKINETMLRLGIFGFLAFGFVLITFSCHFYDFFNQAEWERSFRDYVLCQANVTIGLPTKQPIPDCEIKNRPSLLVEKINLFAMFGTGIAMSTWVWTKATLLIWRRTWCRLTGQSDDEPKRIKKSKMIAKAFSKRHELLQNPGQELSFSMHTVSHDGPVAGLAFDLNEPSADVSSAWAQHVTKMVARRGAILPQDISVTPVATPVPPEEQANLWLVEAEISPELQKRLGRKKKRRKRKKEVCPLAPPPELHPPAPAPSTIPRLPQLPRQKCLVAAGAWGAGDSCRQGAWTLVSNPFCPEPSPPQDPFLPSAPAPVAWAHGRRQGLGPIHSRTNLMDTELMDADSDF
Experimental: The binding test is carried out on membranes enriched with Smoothened receptor. Cells of the HEK-hSmo line were used for preparing these membranes. The cells are washed and recovered in iced PBS. After centrifugation at 100 g for 7 minutes at 4° C., the pellet is taken up in 10 times its volume of an iced buffer A (50 mM HEPES, pH 7.4, 1 mM EDTA) with addition of 10 μl of a cocktail of protease inhibitors (PEAK, Sigma) per ml of buffer, then it is homogenized using a Polytron grinding mill. After centrifugation at 500 g for 30 minutes at 4° C., which makes it possible to remove the nuclei from the cells, the supernatant is centrifuged again at 48 000 g for 45 min at 4° C. The pellet is taken up in 2 ml of buffer A with PEAK added, then the suspension is homogenized using a glass conical grinding mill and is passed through a 23 G needle. Finally, aliquots are placed in Eppendorf tubes and stored at −80° C. The concentration of total protein in the preparation is determined by Lowry's method using BSA for preparing the standard range.
The membranes are resuspended in a buffer (50 mM HEPES and 3 mM MgCl2) containing 0.2% of BSA. The tests of binding of ^3H-(7d) are carried out in polypropylene tubes. The membranes (2 μg of proteins) are incubated with the ^3H-(7d) in the presence or absence of the cold test compounds for 3 hours at 37° C. in a final volume of 400 μl. Incubation is stopped by immersing the tubes in iced water followed by rapid filtration (Brandel) through a glass fiber filtration membrane (GF/C) treated beforehand with 0.3% of polyethylenimine, which can reduce the nonspecific binding of the ^3H-(7d) to the filtration membrane. The radioactivity retained on the filter is measured in the presence of 3 ml of scintillating agent in a liquid scintillation counter.
In this experiment, the cold ligand competes with the radioactive ligand for binding to the receptor, and the affinity (Ki) of each cold ligand for the receptor can be analyzed based on the IC50 values deduced from the inhibition curves.

T1 sequence (Q99835 28-787): as above

Block of the binding of BC to HEK-hSmo cells, in words (human Smo receptor; BC 5 nM, 2 hours): very similar and high
IC50 (human Smo receptor; bodipy-cyclopamine (5 nM), HEK-hSmo cells, read-out: IC50 ± SEM, BC binding (4)): 8 ± 1 nM
IC50 ([1]; 0.35 nM 3H-(7d), 3 hours at 37° C., read-out: IC50 ± SEM, binding of compound 3H-(7d)): 1.5 nM
Ki ([1]; calculated from IC50, read-out: Ki ± SEM, binding of compound 3H-(7d)): 0.7 ± 0.1 nM
SMILES: COc1cc(C(=O)NC(=N)Nc2ccc(C)c(NC(=O)c3ccc(CCc4ccccc4)cc3)c2)cc(OC)c1OC.Cl [Compound 7d, 3,4,5-trimethoxy-N—(N-(4-methyl-3-(4-phenethylbenzamido)phenyl)carbamimidoyl)benzamide hydrochloride]
